Test results as given in patent US9532519B2, “Plant growth regulator and use thereof” (Japan Science and Technology Agency, priority 2006, dated 2017).

Assays:
Format in all cases: in vivo
[1] = system: strawberry (breed; Eminent garden series, Yokubari-ichigo kurenai (SUMIKA)); assay: Effect of oxidized glutathione on growth of strawberry (number of runners); details: GSH-treated zone
eustoma = assay: Effect on promoting growth of roots of eustoma; details: MS culture medium containing 1 mM-GSSG or GSH, grown 1 month, transferred to planter
Excerpt: In the planter, 2 parts of vermiculite, 1 part of The Kureha Ikubyou Baido soil, and 1 part of vermiculite were layered as a lower layer, a middle layer, and an upper layer, respectively, and the above plants were transferred thereto.

Arabidopsis = assay: Influence of oxidized glutathione on growth of Arabidopsis; details: 5 mM H2O2 solution; 8 weeks after the sowing
Procedure: Specifically, the plants were cultivated with two or three plants in one pod of approximately 65 in width, 65 in depth, and 50 in height, and an appropriate amount of a treatment solution was supplied. The effect of the treatment was evaluated with respect to the number of rosette leaves, the speed of a growing flower stalk, the number of flowers, and the number of seeds.

## N[C@@H](CCC(=O)N[C@@H](CS)C(=O)NCC(=O)O)C(=O)O [GSH, reduced glutathione]
[1]
  increase in the number of runners relative to the increase of the GSSG-treated zone: approximately one third
  number of runners per one stock vs Cont zone: more number of runners per one stock than a Cont zone
eustoma
  growth of roots vs plants not treated with GSSG: subdued growth of roots

## OO [H2O2, reference compound]
Arabidopsis
  state of plant (life of plant): withering
